In PubChem BioAssay (NCI):
Where “and” joins values, the source holds several entries; their conditions need not be identical. Equal values may be shown once.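 Assay format: 96-well plates, 48-hour exposure. Here, GI50 denotes the concentration required for 50% inhibition of growth. TGI: total growth inhibition.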

Assays:
Experiment in all cases: NCI-60 cell line screen, 48 h
[1] = tested on: NCI-H23 lung
[2] = tested on: IGROV1 ovarian
[3] = tested on: A549 NSCLC
[4] = tested on: SW-620 colon
[5] = tested on: HCT-15 colon
[6] = tested on: SF-268 CNS
[7] = tested on: HL-60(TB) leukemia
[8] = tested on: RPMI-8226 leukemia
[9] = tested on: HOP-92 NSCLC
[10] = tested on: UO-31 renal

SMILES | GI50 [1] | TGI [1] | GI50 [2] [µM] | TGI [2] [µM] | GI50 [3] [µM] | TGI [3] [µM] | GI50 [4] | TGI [4] | GI50 [5] [µM] | TGI [5] [µM] | GI50 [6] [µM] | TGI [6] [µM] | GI50 [7] | TGI [7] | GI50 [8] [µM] | TGI [8] [µM] | GI50 [9] [µM] | TGI [9] [µM] | GI50 [10] | TGI [10] [µM]
C#CCN(Cc1nc2cc(C(F)(F)F)ccc2nc1-c1ccccc1)c1ccc(F)cc1 | > 100 µM | > 100 µM | 23.1 | > 100 | 20.4 | 60.9 | 26.4 µM | > 100 µM | 29.5 | > 100 | 37.9 | > 100 | 21.8 µM | > 100 µM | 23.3 | 68.7 | 24 | 86.8 | 31.2 µM | > 100
C[C@@H]1OC(=O)NN=C1c1ccc(-c2ccc(F)cc2)c(C(F)(F)F)c1 | 7.17 µM | 21.2 µM | 14.2 | 29.9 | 8.21 | 22.8 | 10.2 µM | 25.3 µM | 4.6 | 17.9 | 1.03 | 21.5 | 7.93 µM | > 100 µM | 5.78 | 51.2 | 11 | 25.9 | 7.79 µM | 20.9
C/C=C(\C)C(=O)N1c2ccccc2CC1c1c(C)[nH]c2ccccc12 (centres undefined) | – | > 100 µM | – | > 100 | – | > 100 | – | > 100 µM | – | > 100 | – | – | – | > 100 µM | – | > 100 | – | 99.4 | – | > 100
CC(C)C1NC(=O)[C@H](C)OC(=O)[C@@H](C(C)C)NC(=O)[C@@H](C)OC(=O)C(C(C)C)NC(=O)[C@H](C)OC1=O (some centres undefined) | – | > 100 µM | – | > 100 | – | > 100 | – | > 51.7 µM | – | 34.2 | – | > 100 | – | > 100 µM | – | > 68.8 | – | > 100 | – | > 100
Clc1nc(-c2ccccc2)nc(Cl)c1Cl | – | 32.6 µM | – | 21.6 | – | 33.1 | – | 15.1 µM | – | 21.2 | – | 30.7 | – | 33 µM | – | 28.1 | – | 30.3 | – | > 57.5
COC(=O)CCCNC(=O)C(=O)c1c(O)c(O)c(C(C)C)c2cc(C)c(-c3c(C)cc4c(C(C)C)c(O)c(O)c(C(=O)C(=O)NCCCC(=O)OC)c4c3O)c(O)c12 | 0.363 µM | 6.03 µM | 0.499 | 13 | 0.255 | 4.01 | 0.74 µM | 5.52 µM | 0.587 | 4.45 | 0.435 | 5.13 | 0.931 µM | 6.76 µM | 0.592 | > 32.5 | 0.37 | 2.13 | 0.558 µM | 4.05
COc1ccccc1N1CCN(CCCOc2ccc(C(=O)/C=C3/C(=O)Nc4ccccc43)cc2)CC1 | 6.19 µM | 38.6 µM | 12.1 | 37.6 | 22.1 | > 100 | 12.6 µM | 25.5 µM | 7.88 | > 68.1 | 16.8 | 47.3 | 6.09 µM | 27.2 µM | 2.6 | 28.6 | 2.59 | 22.2 | 16.3 µM | > 100
NC(Cc1c[nH]c2cc(F)ccc12)C(=O)O (centres undefined) | 1010 µM | > 2500 µM | – | – | 1150 | > 2500 | 1480 µM | > 2500 µM | 888 | > 2500 | 1270 | > 2500 | 951 µM | > 2500 µM | > 2500 | > 2500 | > 2500 | > 2500 | – | > 2500
O=C(CC1SC(=Nc2ccccc2Cl)NC1=O)Nc1ccc(Cl)cc1 (centres undefined) | – | > 100 µM | – | > 100 | – | > 100 | – | 28.4 µM | – | 30.8 | – | > 100 | – | > 100 µM | – | – | – | – | – | > 100
CN(C)C1C(=O)C(C(N)=O)=C(O)C2(O)C(=O)C3=C(O)c4c(O)cccc4C(C)(O)C3CC12 (centres undefined) | 31.4 µM and > 100 µM | 58.5 µM and > 100 µM | – | > 100 | – | > 100 | 23.3 µM and > 100 µM | 46.1 µM and > 100 µM | – | > 100 | – | – | 24.5 µM and 82.9 µM | 53.2 µM and > 100 µM | – | > 100 | – | > 100 | 41.9 µM and > 100 µM | > 100
CC(=O)Oc1cc(Cl)c(OC(C)=O)c2c(OC(C)=O)c(C)c(O[Si](C)(C)C(C)(C)C)cc12 | – | 17.1 µM | – | 12.5 | – | – | – | 8.85 µM | – | 20.3 | – | 26.2 | – | 8.89 µM | – | 9.41 | – | 20 | – | 26.3
C=C1C(=O)O[C@H]2[C@H]1CC/C(Cn1cc(-c3ccsc3)nn1)=C\CC[C@@]1(C)O[C@@H]21 | 1.82 µM | 4 µM | 1.92 | 5.03 | 8.61 | 23.1 | 1.32 µM | 2.68 µM | 1.11 | 2.54 | 2.53 | 8.15 | 1.91 µM | 7 µM | – | – | 1.66 | 3.62 | 1.35 µM | 3.18
O=c1c(-c2nc3ccccc3[nH]2)cc2ccccc2n1Cc1cn(Cc2ccccc2Cl)nn1 | 3.43 µM | 24.3 µM | – | – | 2.05 | 4.38 | 2.87 µM | 10.4 µM | – | – | 2.4 | 8.74 | 6.22 µM | > 100 µM | 3.02 | 10.8 | 1.85 | 4.93 | 1.33 µM | 2.88
Fc1ccc2c(c1)cc1ccc3cccc4ccc2c1c34 | – | > 100 µM | – | > 100 | – | > 100 | – | > 100 µM | – | – | – | > 100 | – | > 100 µM | – | – | – | > 100 | – | > 100
CC(CCC(=O)O)c1ccc(Br)cc1 (centres undefined) | – | > 100 µM | – | > 100 | – | > 100 | – | > 100 µM | – | > 100 | – | > 100 | – | > 100 µM | – | > 100 | – | – | – | > 100
CC(=O)OC1(C#N)CC2OC1C1N=NN(C(=O)OC(C)(C)C)C21 (centres undefined) | – | – | – | > 31.6 | – | – | – | 23.1 µM | – | 22.5 | – | > 100 | – | 79.4 µM | – | > 100 | – | > 31.6 | – | > 100
CCN(CC)/[N+]([O-])=N/OCC(C)O (centres undefined) | – | > 100 µM | – | > 100 | – | > 100 | – | > 100 µM | – | > 100 | – | > 100 | – | > 100 µM | – | – | – | > 100 | – | > 100
